{"source": "ChEMBL document CHEMBL1201862", "about": "“PubChem BioAssay data set” (2004)", "key": {"[1]": {"target": "T1, Tyrosine-protein phosphatase non-receptor type 22 (Homo sapiens, UniProt Q9Y2R2)", "T1 sequence (Q9Y2R2 whole entry)": "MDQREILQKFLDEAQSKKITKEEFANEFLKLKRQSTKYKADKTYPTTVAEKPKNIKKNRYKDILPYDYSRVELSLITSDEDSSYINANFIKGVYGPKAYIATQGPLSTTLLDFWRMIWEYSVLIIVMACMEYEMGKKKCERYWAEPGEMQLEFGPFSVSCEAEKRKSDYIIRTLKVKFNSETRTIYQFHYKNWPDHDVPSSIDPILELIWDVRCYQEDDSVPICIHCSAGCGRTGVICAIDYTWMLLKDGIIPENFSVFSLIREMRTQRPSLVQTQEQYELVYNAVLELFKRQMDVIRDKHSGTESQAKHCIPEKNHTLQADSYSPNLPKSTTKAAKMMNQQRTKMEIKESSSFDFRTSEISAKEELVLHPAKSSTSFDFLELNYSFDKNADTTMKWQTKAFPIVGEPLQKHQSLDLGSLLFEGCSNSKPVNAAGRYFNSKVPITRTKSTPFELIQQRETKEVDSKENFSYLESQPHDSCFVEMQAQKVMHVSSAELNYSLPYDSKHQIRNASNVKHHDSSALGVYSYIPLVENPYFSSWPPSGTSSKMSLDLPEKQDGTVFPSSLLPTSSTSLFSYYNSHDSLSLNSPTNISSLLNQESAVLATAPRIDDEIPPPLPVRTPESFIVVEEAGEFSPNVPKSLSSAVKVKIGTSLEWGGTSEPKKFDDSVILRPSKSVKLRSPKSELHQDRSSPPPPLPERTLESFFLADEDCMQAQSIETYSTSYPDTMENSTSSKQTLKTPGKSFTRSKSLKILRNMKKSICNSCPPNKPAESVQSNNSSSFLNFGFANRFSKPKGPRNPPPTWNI", "assay": "LYP phosphatase inhibition for selectivity, dose response, selectivity assay for LMPTP inhibitor project, biochemical, fluorescence, LYP catalytic domain (AID 652006)", "assay_type": "functional", "conditions": "read-out: IC50_Mean"}, "[2]": {"target": "T2, Low molecular weight phosphotyrosine protein phosphatase (Homo sapiens, UniProt P24666)", "T2 sequence (P24666 whole entry)": "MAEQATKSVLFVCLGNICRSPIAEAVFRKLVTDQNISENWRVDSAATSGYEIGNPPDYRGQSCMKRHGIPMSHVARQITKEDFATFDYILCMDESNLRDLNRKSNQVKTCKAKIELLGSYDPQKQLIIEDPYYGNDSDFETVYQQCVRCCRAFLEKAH", "assay_type": "functional", "conditions": "read-out: IC50_Mean"}, "[3]": {"target": "T3, Carboxy-terminal domain RNA polymerase II polypeptide A small phosphatase 1 (Homo sapiens, UniProt Q9GZU7)", "T3 sequence (Q9GZU7 whole entry)": "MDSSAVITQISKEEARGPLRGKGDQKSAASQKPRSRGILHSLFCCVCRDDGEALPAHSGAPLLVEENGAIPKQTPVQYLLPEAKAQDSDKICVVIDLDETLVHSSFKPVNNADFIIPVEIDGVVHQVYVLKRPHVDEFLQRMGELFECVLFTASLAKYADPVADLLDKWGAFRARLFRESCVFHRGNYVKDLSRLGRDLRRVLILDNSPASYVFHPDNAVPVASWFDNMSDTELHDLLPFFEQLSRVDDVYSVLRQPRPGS", "assay": "inhibitors of CTDSP1, concentration-response testing, biochemical assay, absorbance-based, actives from ultra-high-throughput screening (AID 540297)", "assay_type": "functional"}, "[4]": {"target": "T2, Low molecular weight phosphotyrosine protein phosphatase", "assay_type": "functional", "conditions": "read-out: IC50_Mean", "remark": "listed apart in the source"}, "[5]": {"target": "Arf-GAP with SH3 domain, ANK repeat and PH domain-containing protein 1 (Homo sapiens, UniProt Q9ULH1)", "sequence (Q9ULH1 whole entry, the tested form may be a part)": "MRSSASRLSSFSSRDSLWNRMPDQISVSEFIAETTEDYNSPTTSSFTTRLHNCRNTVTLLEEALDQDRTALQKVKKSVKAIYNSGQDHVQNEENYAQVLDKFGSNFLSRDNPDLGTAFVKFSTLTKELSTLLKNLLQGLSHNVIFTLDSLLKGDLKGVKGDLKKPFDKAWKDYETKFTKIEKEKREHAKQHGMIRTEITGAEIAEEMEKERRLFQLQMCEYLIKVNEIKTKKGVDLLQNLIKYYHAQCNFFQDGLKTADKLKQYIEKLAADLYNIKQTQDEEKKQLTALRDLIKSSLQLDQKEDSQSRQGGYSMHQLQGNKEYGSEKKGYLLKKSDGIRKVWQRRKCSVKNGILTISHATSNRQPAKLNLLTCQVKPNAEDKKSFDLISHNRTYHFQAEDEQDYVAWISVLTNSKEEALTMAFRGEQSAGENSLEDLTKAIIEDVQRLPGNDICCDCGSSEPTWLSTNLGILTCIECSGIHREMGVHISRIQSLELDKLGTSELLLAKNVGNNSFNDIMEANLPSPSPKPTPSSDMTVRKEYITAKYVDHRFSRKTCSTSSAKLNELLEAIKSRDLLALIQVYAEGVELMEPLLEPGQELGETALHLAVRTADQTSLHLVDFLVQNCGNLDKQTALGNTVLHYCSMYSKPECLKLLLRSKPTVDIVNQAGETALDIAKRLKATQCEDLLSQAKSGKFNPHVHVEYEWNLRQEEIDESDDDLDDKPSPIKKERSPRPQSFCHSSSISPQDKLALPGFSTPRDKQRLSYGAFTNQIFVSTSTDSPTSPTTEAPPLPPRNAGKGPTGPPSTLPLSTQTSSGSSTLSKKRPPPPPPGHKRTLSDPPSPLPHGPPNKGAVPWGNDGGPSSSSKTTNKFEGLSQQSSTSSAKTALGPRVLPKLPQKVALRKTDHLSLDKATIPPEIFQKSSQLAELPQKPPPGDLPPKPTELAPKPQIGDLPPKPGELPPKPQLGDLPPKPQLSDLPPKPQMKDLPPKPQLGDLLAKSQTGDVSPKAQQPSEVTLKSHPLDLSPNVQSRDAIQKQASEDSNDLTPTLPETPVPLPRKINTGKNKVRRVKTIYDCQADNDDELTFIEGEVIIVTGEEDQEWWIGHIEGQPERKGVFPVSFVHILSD", "assay_type": "functional"}, "[6]": {"target": "Broad substrate specificity ATP-binding cassette transporter ABCG2 (Homo sapiens, UniProt Q9UNQ0)", "sequence (Q9UNQ0 whole entry)": "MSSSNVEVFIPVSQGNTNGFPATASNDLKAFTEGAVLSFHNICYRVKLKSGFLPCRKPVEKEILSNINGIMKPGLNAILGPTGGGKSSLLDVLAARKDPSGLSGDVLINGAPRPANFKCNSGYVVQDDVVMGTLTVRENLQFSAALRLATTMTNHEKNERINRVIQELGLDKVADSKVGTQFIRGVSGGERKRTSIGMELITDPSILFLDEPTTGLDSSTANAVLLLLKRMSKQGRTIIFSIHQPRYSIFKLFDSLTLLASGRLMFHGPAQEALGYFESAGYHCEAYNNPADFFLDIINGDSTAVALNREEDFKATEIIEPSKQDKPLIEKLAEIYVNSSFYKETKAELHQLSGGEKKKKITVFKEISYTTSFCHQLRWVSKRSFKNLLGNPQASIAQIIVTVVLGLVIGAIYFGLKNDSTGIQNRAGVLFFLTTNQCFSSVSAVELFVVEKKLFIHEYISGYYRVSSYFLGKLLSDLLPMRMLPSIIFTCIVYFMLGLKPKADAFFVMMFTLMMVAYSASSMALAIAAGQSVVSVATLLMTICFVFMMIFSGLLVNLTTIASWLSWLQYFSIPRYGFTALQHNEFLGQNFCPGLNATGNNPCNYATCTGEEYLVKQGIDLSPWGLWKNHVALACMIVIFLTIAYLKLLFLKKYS", "assay": "ABCG2 efflux pump inhibitors, dose response, Ig-MXP3 cells, flow cytometry (AID 1690)", "assay_type": "functional"}, "[7]": {"target": "ATP-dependent translocase ABCB1 (Homo sapiens, UniProt P08183)", "sequence (P08183 whole entry)": "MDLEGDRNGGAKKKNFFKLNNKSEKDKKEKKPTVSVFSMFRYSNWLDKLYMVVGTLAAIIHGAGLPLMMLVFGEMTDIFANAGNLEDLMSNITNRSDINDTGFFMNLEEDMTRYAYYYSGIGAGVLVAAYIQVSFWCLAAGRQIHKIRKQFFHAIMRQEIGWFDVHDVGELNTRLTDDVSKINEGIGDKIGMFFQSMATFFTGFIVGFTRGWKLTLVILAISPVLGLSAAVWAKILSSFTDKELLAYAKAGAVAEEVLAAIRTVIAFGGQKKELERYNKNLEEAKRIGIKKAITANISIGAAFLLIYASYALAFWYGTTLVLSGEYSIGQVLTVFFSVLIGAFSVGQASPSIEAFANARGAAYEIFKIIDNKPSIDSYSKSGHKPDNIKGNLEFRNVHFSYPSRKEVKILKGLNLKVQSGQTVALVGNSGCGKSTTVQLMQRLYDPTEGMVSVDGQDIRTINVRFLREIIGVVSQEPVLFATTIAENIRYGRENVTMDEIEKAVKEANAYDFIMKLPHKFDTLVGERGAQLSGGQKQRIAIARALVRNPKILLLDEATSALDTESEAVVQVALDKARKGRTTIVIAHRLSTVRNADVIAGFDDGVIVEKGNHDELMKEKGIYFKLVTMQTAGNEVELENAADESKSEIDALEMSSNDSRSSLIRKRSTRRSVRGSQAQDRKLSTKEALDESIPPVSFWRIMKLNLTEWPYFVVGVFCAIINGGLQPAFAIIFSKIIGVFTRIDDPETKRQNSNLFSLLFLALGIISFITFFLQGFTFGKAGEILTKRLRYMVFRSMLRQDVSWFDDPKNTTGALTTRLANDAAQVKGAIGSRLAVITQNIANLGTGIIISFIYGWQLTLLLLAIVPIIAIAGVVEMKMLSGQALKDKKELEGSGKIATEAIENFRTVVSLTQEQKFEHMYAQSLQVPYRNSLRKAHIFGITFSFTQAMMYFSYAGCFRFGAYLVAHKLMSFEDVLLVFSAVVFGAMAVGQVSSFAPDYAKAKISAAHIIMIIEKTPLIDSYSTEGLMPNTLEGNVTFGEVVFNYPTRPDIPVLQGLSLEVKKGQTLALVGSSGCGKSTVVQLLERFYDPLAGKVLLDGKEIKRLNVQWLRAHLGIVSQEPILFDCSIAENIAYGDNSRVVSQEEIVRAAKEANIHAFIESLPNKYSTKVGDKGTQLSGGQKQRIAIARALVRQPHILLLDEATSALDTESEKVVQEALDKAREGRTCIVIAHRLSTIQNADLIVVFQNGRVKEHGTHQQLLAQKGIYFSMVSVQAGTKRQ", "assay": "ABCB1 efflux pump inhibitor potency, dose response, Jurkat-DNR cells, JC-1, flow cytometry (AID 1689)", "assay_type": "functional"}, "[8]": {"tested_on": "HEK293", "assay": "inhibitors of LMP1-driven NF-kB reporter, dose response, cell-based, HEK293, luciferase, cherry-pick (AID 588343)", "assay_type": "functional, Homo sapiens", "conditions": "Homo sapiens, HEK293"}, "[9]": {"target": "T4, Interleukin-8 (Homo sapiens, UniProt P10145)", "T4 sequence (P10145 whole entry)": "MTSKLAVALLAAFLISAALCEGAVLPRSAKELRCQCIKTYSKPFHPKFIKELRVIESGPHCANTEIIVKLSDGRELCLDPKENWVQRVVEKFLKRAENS", "assay": "Dose Response confirmation of uHTS small molecule hits for cystic fibrosis induced NFkb Inhibitors in a TNFa-induced IL8 counterscreen.", "assay_type": "functional", "conditions": "read-out: IC50_Mean"}, "[10]": {"target": "T4, Interleukin-8", "assay": "Dose Response confirmation of uHTS small molecule hits for cystic fibrosis induced NFkb Inhibitors in a PAF-induced IL8 counterscreen.", "assay_type": "functional", "conditions": "read-out: IC50_Mean"}, "[11]": {"target": "Dual specificity protein phosphatase 3 (Homo sapiens, UniProt P51452)", "sequence (P51452 whole entry)": "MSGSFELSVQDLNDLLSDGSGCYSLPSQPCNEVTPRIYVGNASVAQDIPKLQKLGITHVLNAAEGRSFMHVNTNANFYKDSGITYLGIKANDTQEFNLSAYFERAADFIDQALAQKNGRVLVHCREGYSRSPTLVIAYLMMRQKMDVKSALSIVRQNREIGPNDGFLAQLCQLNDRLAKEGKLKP", "assay": "VHR phosphatase inhibition, dose response, selectivity assay for STEP inhibitor project, biochemical (AID 602374)", "assay_type": "functional", "conditions": "read-out: IC50_Mean"}, "[12]": {"target": "Tyrosine-protein phosphatase non-receptor type 11 (Homo sapiens, UniProt Q06124)", "sequence (Q06124 whole entry)": "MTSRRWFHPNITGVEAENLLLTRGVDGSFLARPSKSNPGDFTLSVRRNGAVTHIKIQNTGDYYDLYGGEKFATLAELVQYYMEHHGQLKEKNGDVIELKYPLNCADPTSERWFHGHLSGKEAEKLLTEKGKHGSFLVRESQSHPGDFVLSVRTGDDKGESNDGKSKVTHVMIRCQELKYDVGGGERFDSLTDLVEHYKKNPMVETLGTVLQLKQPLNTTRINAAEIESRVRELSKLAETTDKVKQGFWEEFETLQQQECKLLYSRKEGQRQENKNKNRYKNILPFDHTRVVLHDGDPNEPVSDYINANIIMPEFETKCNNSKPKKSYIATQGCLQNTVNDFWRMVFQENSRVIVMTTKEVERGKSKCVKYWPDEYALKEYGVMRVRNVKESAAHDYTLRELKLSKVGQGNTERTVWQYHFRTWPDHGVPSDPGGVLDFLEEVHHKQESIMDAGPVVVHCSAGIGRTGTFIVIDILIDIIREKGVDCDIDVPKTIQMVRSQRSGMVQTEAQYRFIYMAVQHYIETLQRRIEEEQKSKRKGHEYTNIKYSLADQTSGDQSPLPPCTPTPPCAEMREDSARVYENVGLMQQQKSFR", "assay": "SHP2 phosphatase inhibition, dose response, selectivity assay for STEP inhibitor project, biochemical (AID 602367)", "assay_type": "functional", "conditions": "read-out: IC50_Mean"}, "[13]": {"target": "Tyrosine-protein phosphatase non-receptor type 5 (Homo sapiens, UniProt P54829)", "sequence (P54829 whole entry)": "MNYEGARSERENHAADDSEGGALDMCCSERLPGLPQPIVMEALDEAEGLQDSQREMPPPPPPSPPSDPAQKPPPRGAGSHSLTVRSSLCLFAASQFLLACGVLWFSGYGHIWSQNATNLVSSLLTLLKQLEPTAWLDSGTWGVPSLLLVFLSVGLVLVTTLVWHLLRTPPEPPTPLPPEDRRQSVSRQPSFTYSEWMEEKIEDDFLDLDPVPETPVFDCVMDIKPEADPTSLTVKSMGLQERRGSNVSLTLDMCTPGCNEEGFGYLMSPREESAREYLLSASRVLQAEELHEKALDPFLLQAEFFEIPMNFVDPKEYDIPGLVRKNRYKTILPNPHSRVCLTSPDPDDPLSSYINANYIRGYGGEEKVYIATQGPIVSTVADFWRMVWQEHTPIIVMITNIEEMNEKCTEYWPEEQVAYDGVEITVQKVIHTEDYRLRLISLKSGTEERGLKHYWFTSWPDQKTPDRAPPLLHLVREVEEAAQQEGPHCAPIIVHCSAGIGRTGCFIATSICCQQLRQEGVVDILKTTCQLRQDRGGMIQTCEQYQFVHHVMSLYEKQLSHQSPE", "assay": "STEP phosphatase inhibitors, confirmation, biochemical, fluorescence intensity, uHTS hits (AID 602372)", "assay_type": "functional", "conditions": "read-out: IC50_Mean"}}, "note": "Active and inactive are the calls of the source.", "data": [{"smiles": "Cc1cc2oc(=O)cc(-c3cc4ccccc4o3)c2cc1O", "values": [{"measurement": "IC50", "setting": "[1]", "result": "29.1 µM (inactive)"}, {"measurement": "IC50", "setting": "[2]", "result": "20.7 µM (inactive)"}, {"measurement": "IC50", "setting": "[3]", "result": "3.8 µM (active)"}, {"measurement": "IC50", "setting": "[4]", "result": "21.5 µM (inactive)"}]}, {"smiles": "CC(=O)c1cccc(NC(=O)CSc2ccc(-c3ccc4c(c3)OCO4)nn2)c1", "values": [{"measurement": "IC50", "setting": "[5]", "result": "33.9 µM (inactive)"}]}, {"smiles": "CCOC(=O)c1cccc(NC(=O)c2cnc3ccccc3n2)c1", "values": [{"measurement": "EC50", "setting": "[6]", "result": "11.8 µM (active)"}, {"measurement": "EC50", "setting": "[7]", "result": "30.7 µM (inactive)"}]}, {"smiles": "COc1ccccc1[C@]1(C)ON(c2ccccc2C(F)(F)F)C1=O", "values": [{"measurement": "AC50", "setting": "[8]", "result": "7.34 µM (active)"}, {"measurement": "IC50", "setting": "[9]", "result": "24.3 µM (active)"}, {"measurement": "IC50", "setting": "[10]", "result": "8 µM (active)"}]}, {"smiles": "NS(=O)(=O)c1ccccc1", "values": [{"measurement": "IC50", "setting": "[11]", "result": "1.5 µM (active)"}, {"measurement": "IC50", "setting": "[12]", "result": "8.42 µM (active)"}, {"measurement": "IC50", "setting": "[13]", "result": "28.6 µM (inactive)"}]}]}
